Data on two compounds can be found in patent US9145351B2, “Azole derivatives, methods for producing the same, intermediate thereof, agro-horticultural agents” (KUREHA CORPORATION, priority 2009, dated 2015).

In brackets after ≈: the same amount, converted by molar mass.

Test [1] concerns Septoria tritici. Kind of test: Assay for fungicidal effect on Septoria tritici, plate medium 0.02 mg/L (Experimental Example 7). The class given is cell-based. An excerpt: In this Experimental Example, the fungicidal effects of the inventive compounds on a phytopathogenic fungi, Septoria tritici were examined and compared to the Comparative Compound (3) described in Patent Literature 1 (JPA01-93574) by the methods described below. […] The subject microorganism previously cultured on a plate medium was cut out using a cork borer whose diameter was 4 mm, and inoculated to the test compound-containing plate medium described above. […] The growth degree of the microorganism on the test compound-containing plate medium thus observed was compared with the growth degree of the microorganism in the untreated group, and % mycelial growth inhibition was calculated by the following equation. R=100(dc−dt)/dc wherein R=% mycelial extension inhibition, dc=flora diameter in untreated plate, dt=flora diameter in treated plate. The results obtained as described above were evaluated as one of the 5 grades according to the following criteria. <Growth Inhibition Grade> […]

For test [2], the system named is Puccinia recondita. Kind of test: Efficacy test against wheat brown rust, 2 mg/L (Experimental Example 8). The class given is in vivo. As to conditions: sprayed at 1,000 L/ha, concentration printed 0.02 mg/L, 9 to 14 days after inoculation. The protocol: Onto a wheat plant (variety: […] The sprayed leaves were air-dried, and inoculated with spore suspension of Puccinia recondita (adjusted at 200 spores/vision, […] was added at 60 ppm) by spraying, and kept at 25 degrees C. and a high humidity for 48 hours. Thereafter, the plant was kept in a greenhouse. Nine to 14 days after inoculation, the wheat brown rust lesion degree was investigated, and the protective value was calculated by the following equation. Protective value (%)=(1-lesion degree in sprayed plot/lesion degree in unsprayed plot)×100

Test [3] concerns Septoria tritici. As to the kind of experiment: Microplate test of biocidal effect on wheat Septoria blotch (Experimental Example 4). The test is classed as cell-based. As to conditions: Zymoseptoria tritici, 240 h; % mycelium growth inhibition, absorbance 550 nm, 20 degrees C. for about 10 days; read-out: activity level (EC80). Here is the method:
A spore suspension of wheat Septoria blotch (Septoria tritici) (spore concentration: 1×10^6 cells/ml) was prepared, and subjected to 100-fold dilution with a PD medium. A flat 96-well microplate was provided and 1 microliter of the test compound solution formed by dissolution in dimethyl sulfoxide (DMSO) at a concentration 100 times the test concentration was dispensed to the microplate, and then 100 microliter of the medium containing the spore was added and stirred thoroughly. […] R=100×(dc−dt)/dc: R: % mycelium growth inhibition dc: Absorbance of non-treatment zone dt: Absorbance of treatment zone

Test [4] deals with Septoria tritici. As to the kind of experiment: Assay for fungicidal effect on Septoria tritici, plate medium 1.25 mg/L (Experimental Example 9). The class given is cell-based. Conditions: Zymoseptoria tritici, read-out: growth inhibition grade. Here is the method:
Each inventive compound was dissolved in 2 ml of dimethyl sulfoxide. 0.6 ml of this solution was added to 60 nil of a PDA medium (potato dextrose agar medium) at about 60 degrees C., which was mixed thoroughly in a 100-ml conical flask, and poured into a dish, where it was solidified, thereby obtaining a plate medium containing the inventive compound at 50 mg/L and 5 mg/L. On the other hand, a subject microorganism previously cultured on a plate medium was cut out using a cork borer whose diameter was 4 mm, and inoculated to the test compound-containing plate medium described above. […] The growth degree of the microorganism on the test compound-containing plate medium thus observed was compared with the growth degree of the microorganism in the untreated group, and % mycelial growth inhibition was calculated by the following equation. R=100(dc−dt)/dc wherein R=% mycelial extension inhibition, dc=flora diameter in untreated plate, dt=flora diameter in treated plate. The results obtained as described above were evaluated as one of the 5 grades according to the following criteria. […] In this Experimental Example, the fungicidal effects of the inventive compounds on Septoria tritici were examined by the methods described in the Experimental Example 5. In this Experimental Example, the inventive compounds were diluted at 1.25 mg/L.

The subject of test [5] is Puccinia recondita. Kind of test: Efficacy test against wheat brown rust, 1 mg/L (Experimental Example 10). The test is classed as in vivo. Conditions: 1 g/ha (1 mg/L sprayed at 1,000 L/ha).

For `CC1(C)CC[C@@H](Cc2ccc(F)cc2)[C@]1(O)Cn1cncn1` (racemic) [Compound (3)], in the test on Septoria tritici [1], the “grade (growth inhibition grade)” value is given as 2 (% Mycerial growth inhibition of less than 40 to 20% or higher). The “degree (wheat brown rust lesion degree)” value in the test on Puccinia recondita [2] is 3 (10% or higher and less than 30%).

As for `CC1(C)CC[C@H](Cc2ccc(Cl)cc2)[C@@]1(O)Cn1cncn1` (racemic) [comparative compound (I), (1RS,5SR)-5-(4-chlorobenzyl)-2,2-dimethyl-1-(1H-1,2,4-triazol-1-ylmethyl)cyclopentanol, reference compound], the EC80 in the test with Septoria tritici [3] was found to be 0.4 mg/L (≈ 1.25 µM). Further, the inhibition at 1.25 µg/mL in the test on Septoria tritici [4] fell in the range of 40 to 60%. Further, the lesion degree in the test with Puccinia recondita [5] is 3 (10% or higher and less than 30%).
